According to the CheMixHub ionic liquid set:

Experiment: xn = mol fraction of the nth substance listed

CC[NH+](C)CC.O=S(=O)([O-])C(F)(F)F + O
101 kPa
Conditions | viscosity [mPa·s]
293.15 K, x2 = 0.759 | 7.65
313.15 K, x2 = 0.037 | 25.8
333.15 K, x2 = 0.434 | 7.33
333.15 K, x2 = 0.759 | 2.81
333.15 K, x2 = 0.844 | 1.94
353.15 K, x2 = 0.434 | 4.89
353.15 K, x2 = 0.759 | 2.01

Nc1ccccc1 + CCCC[n+]1ccn(C)c1.O=S(=O)([O-])C(F)(F)F
Conditions | viscosity [mPa·s]
323.15 K, 100 kPa, x1 = 1 | 1.927

CCCC[n+]1ccn(C)c1.F[B-](F)(F)F + c1ccncc1
298.15 K, 101 kPa, x2 = 0
Conditions | electrical conductivity [S/m] | viscosity [mPa·s]
– | 0.194 | 116

O=C(CO)[C@@H](O)[C@H](O)[C@@H](O)CO + CCCCCCCCCCCCCCCC[N+](C)(C)C.[Br-] + O
viscosity [mPa·s], 100 kPa
Conditions | 298.15 K | 308.15 K | 318.15 K
x2 = 7.19e-06, x1 = 0.002005 | 0.946 | 0.782 | 0.65
x2 = 7.19e-06, x1 = 0.002298 | 0.954 | 0.788 | 0.655
x2 = 7.19e-06, x1 = 0.002748 | 0.965 | 0.797 | 0.662
x2 = 7.2e-06, x1 = 0.0007582 | 0.915 | 0.757 | 0.629
x2 = 7.2e-06, x1 = 0.001199 | 0.926 | 0.766 | 0.637
x2 = 7.2e-06, x1 = 0.001449 | 0.932 | 0.771 | –
x2 = 1.438e-05, x1 = 0.00232 | 0.96 | 0.793 | 0.658
x2 = 1.438e-05, x1 = 0.002732 | 0.971 | 0.802 | 0.665
x2 = 1.439e-05, x1 = 0.00146 | 0.937 | – | –
x2 = 1.439e-05, x1 = 0.001979 | 0.951 | 0.786 | 0.652
x2 = 1.44e-05, x1 = 0.0008896 | 0.922 | 0.763 | 0.633
x2 = 1.44e-05, x1 = 0.001296 | 0.933 | 0.771 | 0.64
x2 = 2.156e-05, x1 = 0.002717 | 0.975 | 0.805 | 0.667
x2 = 2.157e-05, x1 = 0.002351 | 0.965 | 0.797 | 0.66
x2 = 2.158e-05, x1 = 0.001965 | 0.954 | 0.789 | 0.653
x2 = 2.159e-05, x1 = 0.001383 | 0.938 | 0.776 | 0.642
x2 = 2.159e-05, x1 = 0.001661 | 0.946 | 0.782 | 0.647
x2 = 2.16e-05, x1 = 0.001025 | 0.928 | 0.768 | 0.636

O + C[C@H](N)C(=O)O + CCCCCCCCCCCCCCCC[n+]1ccccc1.[Cl-]
Conditions | electrical conductivity [S/m]
308.15 K, 101 kPa, x2 = 0, x3 = 0 | 6.7e-05

CC[n+]1ccn(C)c1.N#C[N-]C#N + CCCC[N+](C)(CCCC)CCCC.N#C[N-]C#N
101 kPa, x1 = 1
Conditions | viscosity [mPa·s]
303.15 K | 12.97
323.15 K | 8.28
343.15 K | 5.49
353.15 K | 4.63

CCCC[n+]1ccn(C)c1.F[B-](F)(F)F + CC#N
Conditions | electrical conductivity [S/m] | viscosity [mPa·s]
298.15 K, 100 kPa, x1 = 0.1059 | 1.25 | 0.879
298.15 K, 100 kPa, x1 = 0.2213 | 1.16 | 2.027
298.15 K, 100 kPa, x1 = 0.3008 | 1.08 | 3.372
298.15 K, 100 kPa, x1 = 0.3894 | 0.782 | 5.548
298.15 K, 100 kPa, x1 = 0.4432 | 0.733 | 7.71
298.15 K, 100 kPa, x1 = 0.6178 | 0.509 | 18.74
298.15 K, 100 kPa, x1 = 0.7111 | 0.374 | 26.09
298.15 K, 100 kPa, x1 = 0.8146 | 0.338 | 41.69
298.15 K, 100 kPa, x1 = 0.9113 | 0.252 | 68.51
298.15 K, 100 kPa, x1 = 1 | 0.243 | 104.7
298.15 K, 101 kPa, x2 = 0 | 0.194 | 116
298.15 K, 101 kPa, x2 = 0.0956 | 0.278 | 80
298.15 K, 101 kPa, x2 = 0.2023 | 0.453 | 50.9
298.15 K, 101 kPa, x2 = 0.3174 | 0.672 | 31
298.15 K, 101 kPa, x2 = 0.4034 | 0.91 | 20.9
298.15 K, 101 kPa, x2 = 0.5137 | 1.34 | 11.9
298.15 K, 101 kPa, x2 = 0.6131 | 1.83 | 6.78
298.15 K, 101 kPa, x2 = 0.7085 | 2.48 | 3.78
298.15 K, 101 kPa, x2 = 0.8093 | 3.1 | 1.91
298.15 K, 101 kPa, x2 = 0.8631 | 3.21 | 1.32
298.15 K, 101.33 kPa, x2 = 0.3999 | – | 17.6
298.15 K, 101.33 kPa, x2 = 0.7988 | – | 1.79
298.15 K, 101.33 kPa, x2 = 0.8988 | – | 0.887
303.15 K, 101 kPa, x2 = 0 | – | 84.2
303.15 K, 101 kPa, x2 = 0.2034 | – | 35.6
313.15 K, 101 kPa, x2 = 0.4013 | – | 11.15
313.15 K, 101 kPa, x2 = 0.6018 | – | 4.33
323.15 K, 101 kPa, x2 = 0 | – | 35.5
323.15 K, 101 kPa, x2 = 0.3011 | – | 12.61
323.15 K, 101 kPa, x2 = 0.5 | – | 5.7
323.15 K, 101 kPa, x2 = 0.7997 | – | 1.221
